Compound: CC(C)c1nc2c(c(-c3ccc(F)cc3)c1/C=C/[C@@H](O)C[C@@H](O)CC(=O)O)CCCN2S(C)(=O)=O [Example 22, (E)-(3R,5S)-7-[4-(4-Fluorophenyl)-2-isopropyl-8-methanesulfonyl-5,6,7,8-tetrahydro-[1,8]naphthyridin-3-yl]-3,5-dihydroxyhept-6-enoic Acid]
- melting point: 184 to 186 °C

Source: US7420059B2, “HMG-CoA reductase inhibitors and method” (Bristol-Myers Squibb Company, priority 2003, dated 2008)
